Source: patent US7547676B2, “Antagonist peptides to the C5A chemotactic function of vitamin D binding protein” (The Research Foundation of State University of New York, priority 2004, dated 2009)

What was measured:
DBP = molecular target: T1, DBP (Homo sapiens, UniProt P02774); settings: Cooke and Haddad, 1989; cited from earlier work
T1 sequence (P02774 17-474): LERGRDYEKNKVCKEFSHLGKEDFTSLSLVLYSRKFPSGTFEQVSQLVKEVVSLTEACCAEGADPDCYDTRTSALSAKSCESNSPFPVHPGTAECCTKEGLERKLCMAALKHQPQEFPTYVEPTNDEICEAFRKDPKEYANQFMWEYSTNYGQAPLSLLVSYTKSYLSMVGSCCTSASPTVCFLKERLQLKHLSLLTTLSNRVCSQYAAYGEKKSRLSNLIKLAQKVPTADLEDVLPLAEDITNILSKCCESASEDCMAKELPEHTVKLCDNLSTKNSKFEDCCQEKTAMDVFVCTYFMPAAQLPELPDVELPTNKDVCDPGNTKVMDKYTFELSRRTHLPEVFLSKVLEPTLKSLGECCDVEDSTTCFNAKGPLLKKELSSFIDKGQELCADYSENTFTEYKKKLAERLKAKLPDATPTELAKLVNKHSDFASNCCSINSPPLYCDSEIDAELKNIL

neutrophils [1] = assay: Neutrophil chemotaxis assay, C5a co-chemotactic activity of DBP; format: cell-based, human; set-up: effect on co-chemotactic activity of DBP, dose-response: dose or concentration left out as unconfirmed
From the text: Isolation of human neutrophils Neutrophils, serum, and plasma were isolated from the venous blood of healthy, medication-free, paid volunteers who gave informed consent. The Institutional Review Board of Stony Brook University approved this procedure. These procedures have been described in detail previously (Kew et al., 1995a).
Neutrophil chemotaxis assay Cell movement was quantitated using a 48 well microchemotaxis chamber (Neuroprobe, Cabin John, Md.) and 5.0 μm pore size cellulose nitrate filters (purchased from Neuroprobe) as previously described (Kew et al., 1995a). Cell suspensions and chemotactic factors were prepared and/or diluted in the chemotaxis assay buffer (Hank's balanced salt solution supplemented with 10 mM HEPES (pH 7.4) and 1% bovine serum albumin). Cell movement was quantitated microscopically by measuring the distance in microns (μm) that the leading front of cells had migrated into the filter according to the method described by Zigmond and Hirsch (1973). In each experiment, five fields per duplicate filter were measured at 400× magnification.

neutrophils [2] = assay: Neutrophil viability; format: cell-based, human; settings: 10 μM SOV
[3] = test system: Alkaline phosphatase activity on the plasma membrane of viable neutrophils; assay: Neutrophil alkaline phosphatase assay (DiFMUP); format: cell-based, human; settings: 5×10^6 cells pretreated with 10 nM 1,25(OH)2D3 or 10 μM SOV; untreated 11,107±1335 units
Protocol: Neutrophil alkaline phosphatase assay Alkaline phosphatase activity on the plasma membrane of viable neutrophils was measured using the fluorescent substrate 6,8-difluoro-4-methylumbelliferyl phosphate (DiFMUP) and the EnzChek Phosphatase Assay Kit (Molecular Probes, Eugene, Oreg.). Neutrophils (5×10^6 cells) were suspended in 50 μl of 0.1M sodium acetate (pH 5.0) and were immediately added to microtiter plates containing 50 μl of 0.2mM DiFMUP substrate and incubated for 5 min at 22° C. in the dark. A standard curve was generated using known amounts of the fluorescent compound 6,8-difluoro-7-hydroxy-4-methylcoumarin. Fluorescence was measured at 358 nm excitation and 455 nm emission using a SpectraMax M2 microtiter plate reader (Molecular Devices, Sunnydale, Calif.).

Compound	affinity for DBP relative to 1,25(OH)2D3 (DBP) [fold]	effect on co-chemotactic activity of DBP, dose-response (neutrophils [1]; bound to DBP)	effect on co-chemotactic activity of DBP (neutrophil chemotaxis toward C5a) (neutrophils [1]; ligand bound to DBP, 1,25(OH)2D3 100 nM)	cell viability (neutrophils [2])	cells ability to migrate towards C5a plus DBP (neutrophils [1]; SOV alone)	reversal of the inhibitory effect of 1,25(OH)2D3 on the C5a co-chemotactic activity of DBP (neutrophils [1]; neutrophils pretreated with 10 μM SOV)	neutrophil AP activity [3] [units]
C=C1CC[C@H](O)C/C1=C/C=C1\CCC[C@]2(C)[C@@H]([C@H](C)CCCC(C)(C)O)CC[C@@H]12 [25(OH)D3]	10	no effect on co-chemotactic activity	did not alter its ability to enhance neutrophil chemotaxis toward C5a	–	–	–	–
[Na+].[Na+].[Na+].[O]=[V]([O-])([O-])[O-] [SOV, sodium orthovanadate]	–	–	–	did not alter cell viability	no effect	completely reverses the inhibitory effect	667±111
